According to ChEMBL document CHEMBL5335817, “Discovery and optimization of (2-naphthylthio)acetic acid derivative as selective Bfl-1 inhibitor” (Bioorg Med Chem Lett, 2024):

What was measured:
Bcl-2-related protein A1 [1] = biological target: T1, Bcl-2-related protein A1 (Homo sapiens, UniProt Q16548); test: Inhibition of Bfl-1 (unknown origin) assessed as inhibition constant
T1 sequence (Q16548 whole entry): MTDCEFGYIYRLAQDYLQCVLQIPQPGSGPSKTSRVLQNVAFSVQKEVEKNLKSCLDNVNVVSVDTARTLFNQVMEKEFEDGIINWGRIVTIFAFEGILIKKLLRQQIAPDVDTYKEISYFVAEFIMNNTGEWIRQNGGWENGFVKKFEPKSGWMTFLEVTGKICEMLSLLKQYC

[2] = biological target: T2, Induced myeloid leukemia cell differentiation protein Mcl-1 (Homo sapiens, UniProt Q07820)
T2 sequence (Q07820 whole entry): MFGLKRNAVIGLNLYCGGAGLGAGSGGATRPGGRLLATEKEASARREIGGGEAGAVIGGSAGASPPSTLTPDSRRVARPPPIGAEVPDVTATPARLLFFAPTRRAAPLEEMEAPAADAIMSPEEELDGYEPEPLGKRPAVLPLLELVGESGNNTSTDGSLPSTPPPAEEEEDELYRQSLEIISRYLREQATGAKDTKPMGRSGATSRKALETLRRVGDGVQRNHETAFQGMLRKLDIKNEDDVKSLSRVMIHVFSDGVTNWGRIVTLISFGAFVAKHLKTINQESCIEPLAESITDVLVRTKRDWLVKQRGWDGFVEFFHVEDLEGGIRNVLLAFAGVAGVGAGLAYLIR
Description: Inhibition of Mcl-1 (unknown origin) assessed as inhibition constant

Bcl-2-related protein A1 [3] = biological target: T1, Bcl-2-related protein A1
Description: Inhibition of recombinant Bfl-1 (1-152) (unknown origin) by TR-FRET assay

Bcl-2-related protein A1 [4] = biological target: T1, Bcl-2-related protein A1; test: Inhibition of GST-tagged Bfl-1 (unknown origin) incubated for 60 min by TR-FRET assay
Bcl-2-related protein A1 [5] = biological target: T1, Bcl-2-related protein A1; test: Inhibition of Bfl-1 (unknown origin) incubated for 30 min by fluorescence polarization assay
Bcl-2-like protein 2 = biological target: T3, Bcl-2-like protein 2 (Homo sapiens, UniProt Q92843); test: Inhibition of GST fused Bcl-w (unknown origin) incubated for 5 min by TR-FRET assay
T3 sequence (Q92843 whole entry): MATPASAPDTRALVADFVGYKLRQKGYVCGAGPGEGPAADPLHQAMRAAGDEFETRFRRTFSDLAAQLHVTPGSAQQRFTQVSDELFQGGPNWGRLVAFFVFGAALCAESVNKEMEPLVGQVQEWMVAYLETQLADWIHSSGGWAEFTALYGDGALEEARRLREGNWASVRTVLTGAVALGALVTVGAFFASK

Bcl-2-like protein 1 = Bcl-2-like protein 1 (Homo sapiens, UniProt Q07817); test: Inhibition of GST fused Bcl-xL (unknown origin) incubated for 5 min by TR-FRET assay
Bcl-2-like protein 1, sequence (Q07817 whole entry, the tested form may be a part): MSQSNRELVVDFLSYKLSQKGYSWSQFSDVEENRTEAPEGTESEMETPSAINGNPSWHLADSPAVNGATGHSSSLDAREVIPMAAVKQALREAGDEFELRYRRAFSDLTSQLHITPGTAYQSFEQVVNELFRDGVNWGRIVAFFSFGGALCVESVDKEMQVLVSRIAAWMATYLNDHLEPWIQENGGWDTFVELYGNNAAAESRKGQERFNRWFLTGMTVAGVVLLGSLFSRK

[6] = biological target: T2, Induced myeloid leukemia cell differentiation protein Mcl-1; test: Inhibition of GST fused Mcl-1 (unknown origin) incubated for 5 min by TR-FRET assay
[7] = biological target: Apoptosis regulator Bcl-2 (Homo sapiens, UniProt P10415); test: Inhibition of GST fused Bcl-2 (unknown origin) incubated for 5 min by TR-FRET assay
Apoptosis regulator Bcl-2, sequence (P10415 whole entry, the tested form may be a part): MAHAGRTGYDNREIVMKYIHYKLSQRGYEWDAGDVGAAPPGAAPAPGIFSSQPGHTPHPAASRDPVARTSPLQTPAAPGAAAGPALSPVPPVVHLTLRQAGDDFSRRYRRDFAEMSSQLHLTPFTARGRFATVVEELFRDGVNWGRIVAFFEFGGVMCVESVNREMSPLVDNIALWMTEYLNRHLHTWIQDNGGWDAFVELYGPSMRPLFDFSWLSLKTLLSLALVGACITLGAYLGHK

| Ki (Bcl-2-related protein A1 [1]) | IC50 (Bcl-2-related protein A1 [3]) | SMILES | further results |
| --- | --- | --- | --- |
| > 50 µM |  | COc1c(SCC(=O)O)cc(NS(=O)(=O)c2ccc(C)cc2)c2ccccc12 |  |
| 3.17 µM | 8.41 µM | O=C(O)CSc1cc(NS(=O)(=O)c2ccc(Br)cc2)c2ccccc2c1O | Ki [2]: 1.91 µM |
| > 50 µM |  | COC(=O)CSc1cc(NS(=O)(=O)c2ccc(-c3ccccc3)cc2)c2ccccc2c1OC |  |
| 2.21 µM |  | O=C(O)CSc1cc(NS(=O)(=O)c2ccc(-c3ccccc3)cc2)c2ccccc2c1O | Ki [2]: 4.71 µM |
|  | 4.61 µM | O=C(O)CSc1cc(NS(=O)(=O)c2cccs2)c2ccccc2c1O |  |

The remaining lines, values behind:

| SMILES | Ki (Bcl-2-related protein A1 [1]) | IC50 (Bcl-2-related protein A1 [3]) | further results |
| --- | --- | --- | --- |
| COc1ccc(S(=O)(=O)Nc2cc(SCC(=O)O)c(OC)c3ccccc23)cc1 | > 50 µM |  |  |
| CC(C)=CCC[C@]1(C)C=Cc2c(O)c3c(c(CC=C(C)C)c2O1)O[C@]12C(=C[C@@H]4C[C@H]1C(C)(C)O[C@@]2(C/C=C(/C)C(=O)O)C4=O)C3=O [GAMBOGIC ACID] |  | 0.176 µM |  |
| COc1ccc(C(c2c(-c3ccccc3)n(O)c3ccccc23)N2CCN(C)CC2)cc1 (stereo unspecified) |  |  | IC50 (Bcl-2-related protein A1 [4]): 1.4 µM; IC50 (Bcl-2-related protein A1 [5]): 0.8 µM |
| CCOC(=O)CS(=O)(=O)c1nc(-c2ccc(F)cc2)cc(C(F)(F)F)n1 |  |  | IC50 (Bcl-2-like protein 2): > 100 µM; IC50 (Bcl-2-like protein 1): > 100 µM; IC50 [6]: > 100 µM; IC50 [7]: > 100 µM |
